Our source for the Kd values is PubChem BioAssay AID1549 (Sanford-Burnham Center for Chemical Genomics, 2009).

Activity calls are given as the source filed them. How the calls were made is not given here. Bounds are passed on as bounds.

The target in this assay is Influenza A virus M2 proton channel (A/TW/4845/1999 H1N1). Kind of assay: NMR binding screen, influenza A virus M2 proton channel, Kd (AID 1549). As to conditions: M2 protein.
As usually defined, the Kd is the constant that tells how readily two partners part at equilibrium. On to `Cc1ccc(CN2C3=NC(=O)CN3c3ccccc32)cc1`, for which the Kd is > 4 mM (inactive).

For the compound `CN1CCN(C(=O)Nc2cccc3ccccc23)CC1`, the Kd was > 4 mM (inactive). For `CCOC(=O)CNc1ncnc2c1nnn2CC`, the Kd was > 4 mM (inactive). In the case of `COc1ccc(C2=CC(=O)C=CC2=O)cc1`, the Kd is > 4 mM (inactive). Consider `O=C(O)CC1NCCNC1=O` (stereo not given), for which the Kd was > 4 mM (inactive). As for `CCCc1cc2c(c(NC(C)=O)n1)c(=O)oc1ccccc12`, the Kd was > 4 mM (inactive). Turning to `Nc1ccc(Cl)nn1`, the Kd was > 4 mM (inactive). As for `CC(=O)Nc1nc(C)nc(-c2ccccc2)c1C(C)=O`, the Kd is > 4 mM (inactive). Regarding `Nc1ccc(NS(=O)(=O)c2ccc(N)cc2)cc1`, the Kd is > 4 mM (inactive). In the case of `Cc1occc1C(=O)Nc1ccc2c(c1)OCO2`, the Kd was > 4 mM (inactive). With `COc1ccc(N=C2NC(=O)CS2)cc1`, the Kd is > 4 mM (inactive). For `NC(=O)c1cn(-c2ccccc2)nc1-c1cccnc1` the value was > 4 mM (inactive); for `O=C(O[C@@H]1Cc2c(O)cc(O)cc2O[C@@H]1c1cc(O)c(O)c(O)c1-c1c([C@H]2Oc3cc(O)cc(O)c3C[C@H]2O)cc(O)c(O)c1O)c1cc(O)c(O)c(O)c1`, > 4 mM (inactive). Take `CCC1(CC)C(=O)N=C(N)NC1=O`: the Kd is > 4 mM (inactive). For `CC(=O)Nc1ccn(-c2ccccc2)n1` the value was > 4 mM (inactive); for `NC1=NC(=O)C(Cc2ccccc2)S1` (stereo not given), > 4 mM (inactive). Consider `Cc1cc(CN2C(=O)c3ccccc3C2=O)on1`, for which the Kd was > 4 mM (inactive). For `O=C(/C=C/c1ccc(O)c(O)c1)O[C@@H]1C[C@](O)(C(=O)O)C[C@@H](O)[C@H]1O`, the Kd is > 4 mM (inactive).

As for `CC(C)=CC(=O)Nc1ccccc1Br`, the Kd is > 4 mM (inactive). With `O=c1[nH]c2ccc(S(=O)(=O)NC3CC3)cc2[nH]1`, the Kd is > 4 mM (inactive). As for `CN(C(=O)c1cc2cccnc2n(C)c1=O)c1ccccc1`, the Kd was > 4 mM (inactive).

Consider `CC(=O)Oc1ccc(-c2nc(-c3cccnc3)no2)cc1`, for which the Kd was > 4 mM (inactive). Regarding `O=[N+]([O-])c1cccc(-c2nnco2)c1`, the Kd was > 4 mM (inactive). For `Cn1cnc2cc(NC(=O)c3ccco3)ccc21` the value was > 4 mM (inactive); for `N/N=C/c1cccnc1`, > 4 mM (inactive). With `O=C(O)C1CC(=O)N(Cc2ccco2)C1` (stereo not given), the Kd was > 4 mM (inactive). Turning to `CC1=CC(=O)CC(C)(C)C1(O)/C=C/C(C)=C\C(=O)O` (stereo not given), the Kd is > 4 mM (inactive). Under `COc1cc([C@@H]2c3cc4c(cc3[C@H](O)[C@H]3COC(=O)[C@H]23)OCO4)cc(OC)c1OC` stands > 4 mM (inactive). In the case of `Cc1nnsc1C(=O)Nc1ccc(C(N)=O)cc1`, the Kd is > 4 mM (inactive). For the compound `OCC(O)C(O)C(O)CO` (stereo not given), the Kd is > 4 mM (inactive).

Consider `CC1(C)Oc2ccc3ccc(=O)oc3c2CC1O` (stereo not given), for which the Kd was > 4 mM (inactive). Consider `CCOC(=O)C1=C(O)CCN(C)C1`, for which the Kd was > 4 mM (inactive). `O=c1cnnc(Nc2ccc(O)cc2)[nH]1`: the Kd is > 4 mM (inactive).

On to `O=C(O)c1ccc2c(c1)OCCO2`, for which the Kd was > 4 mM (inactive).

With `COc1ccc([C@@H](C)C(=O)c2ccc(O)cc2O)cc1`, the Kd was > 4 mM (inactive).

As for `Oc1ccc([C@H]2Oc3cc(O)cc(O)c3C[C@H]2O)cc1`, the Kd is > 4 mM (inactive). Consider `O=c1[nH]nc(Cc2ccccn2)c2ccccc12`, for which the Kd is > 4 mM (inactive). Take `O=C1CCC(=O)N1c1nc2ccccc2s1`: the Kd is > 4 mM (inactive). With `Cc1n[nH]c(=O)c2ncn(C)c12`, the Kd was > 4 mM (inactive).

On to `CC(C)NC(=O)c1cc(=O)n(C)c(=O)n1C`, for which the Kd is > 4 mM (inactive). As for `Nc1cc(N)nc(SCc2ccccc2)n1`, the Kd was > 4 mM (inactive).

`CC(=O)Nc1ccc(C(=O)NC2CCSC2=O)cc1` (stereo not given): the Kd is > 4 mM (inactive).

Consider `Cc1c(O)c(O)cc2c1CC=C1[C@@]2(C)CC[C@@]2(C)C3C[C@](C)(C(=O)O)CC[C@]3(C)CC[C@]12C` (stereo not given in full), for which the Kd was > 4 mM (inactive). For `NC(=O)C1(S(=O)(=O)c2ccccc2)CC1` the value was > 4 mM (inactive).

Turning to `O=C(O)CCCc1nc2ccccc2s1`, the Kd was > 4 mM (inactive). Regarding `CC1=C(CCC(=O)O)c2cc3nc(cc4[nH]c(cc5[nH]c(cc1n2)c(C)c5C(C)O)c(C)c4C(C)O)C(C)=C3CCC(=O)O` (stereo not given), the Kd is > 4 mM (inactive).

`COc1ccc(N2C(=N)C(C)(C)NC2=O)cc1`: the Kd is > 4 mM (inactive).

For the compound `NCC(O)c1ccc(O)cc1` (stereo not given), the Kd was > 4 mM (inactive).

For the compound `Cn1c(C(=O)O)ccc1S(N)(=O)=O`, the Kd was > 4 mM (inactive).

Take `Cc1cc(=O)cc(C)n1-c1ccccc1N1CCOCC1`: the Kd was > 4 mM (inactive).

Take `CC(=O)c1cc2c(cc1O)OC(C)(C)C=C2`: the Kd is > 4 mM (inactive). As for `O=C(O)CN1CCN(C2CCCC2)CC1`, the Kd was > 4 mM (inactive). With `O=C(NCN1CCOCC1)c1cccnc1`, the Kd is > 4 mM (inactive). For `Cn1c(=O)[nH]c2nc[nH]c2c1=O`, the Kd is > 4 mM (inactive). Turning to `Oc1ccc(-c2n[nH]c(=S)n2Cc2ccco2)cc1`, the Kd was > 4 mM (inactive). Take `O=C1C2CCCCC2C(=O)N1Cc1cccnc1` (stereo not given): the Kd was > 4 mM (inactive).

For `O=C(Nc1cnccn1)c1cccs1`, the Kd is > 4 mM (inactive).

In the case of `Cc1nc2ccccc2c2c1C(=O)N(C)C2=O`, the Kd was > 4 mM (inactive).

For `NCc1ccc2c(c1)OCCO2`, the Kd was > 4 mM (inactive). `CCOC(=O)c1c(C)cc(O)c(C)c1O`: the Kd was > 4 mM (inactive). For the compound `CN1CCC(NC(=O)C2CCCO2)CC1` (stereo not given), the Kd is > 4 mM (inactive). As to `COc1ccc(C)cc1S(N)(=O)=O`, the Kd was > 4 mM (inactive). As to `N#CCCn1c(=O)oc2ccccc21`, the Kd was > 4 mM (inactive).

In the case of `CC(C)(C)NC(=O)N1CCC(C(=O)O)CC1`, the Kd is > 4 mM (inactive). As for `Cn1cccc1C(=S)N1CCOCC1`, the Kd is > 4 mM (inactive). Turning to `CC(=O)N1N=C(N)SC1c1cccnc1` (stereo not given), the Kd was > 4 mM (inactive). For the compound `Cc1cc(SCC(=O)Nc2nccs2)nc(=O)[nH]1`, the Kd was > 4 mM (inactive). For `CCOC(=O)c1ccc2c(c1)nnn2C` the value was > 4 mM (inactive); for `COC(=O)CSc1nnc(-c2ccc(C(=O)O)cc2)o1`, > 4 mM (inactive). For `NC(=O)CCn1cnc2ccccc21` the value was > 4 mM (inactive). As for `Cc1cccc(CSc2nncc(=O)[nH]2)c1`, the Kd was > 4 mM (inactive). As for `O=C(Nc1ccccc1)c1cnc2n(c1=O)CCS2`, the Kd is > 4 mM (inactive). Regarding `O=C(NCO)c1ccccc1Cl`, the Kd was > 4 mM (inactive). On to `O=c1oc2c(O)c(O)cc3c(=O)oc4c(O)c(O)cc1c4c23`, for which the Kd was > 4 mM (inactive).

As for `Nc1ccc(CCC(=O)O)cc1`, the Kd is > 4 mM (inactive). With `O=C(O)c1ncoc1-c1ccccc1`, the Kd was > 4 mM (inactive).

In the case of `CC(NC(=O)C1CCCCC1)C(=O)NC1=NCCS1` (stereo not given), the Kd is > 4 mM (inactive). For `Nc1cc(C(=O)O)ccc1N1CCCCCC1` the value was > 4 mM (inactive); for `CC1=NN2C(=N)/C(=C\c3cccs3)C(=O)N=C2S1`, > 4 mM (inactive). In the case of `CCOC(=O)c1cc(C)n(-n2cnnc2)c1C`, the Kd was > 4 mM (inactive). Consider `C(=C\c1ccccc1)/C=N/n1cnnc1`, for which the Kd is > 4 mM (inactive). For `Cc1cc(-c2ccccc2)nc2cc(C(N)=O)nn12` the value was > 4 mM (inactive); for `c1ccc2c(c1)[nH]c1cnccc12`, > 4 mM (inactive).

On to `C=C(C)[C@H]1CC=C(C(=O)O)CC1`, for which the Kd is > 4 mM (inactive).

As to `COc1ccc(-c2cc3nc4n(c(=O)c3s2)CCC4)cc1`, the Kd is > 4 mM (inactive).

In the case of `CCOC(=O)C1CCN(Cc2ccccc2)CC1=O` (stereo not given), the Kd is > 4 mM (inactive). Take `CC[C@H]1CN2CCC1C[C@@H]2[C@@H](O)c1ccnc2ccc(OC)cc12` (stereo not given in full): the Kd is > 4 mM (inactive). With `Cn1nnc2c(N3CCC(C(N)=O)CC3)ncnc21`, the Kd was > 4 mM (inactive). As for `CC(C)[C@@H]1CC[C@@H](C)C[C@H]1O`, the Kd is > 4 mM (inactive).

`Cc1n[nH]c(=S)[nH]c1=O`: the Kd is > 4 mM (inactive). Take `O=C(CCc1ccc(O)cc1)c1c(O)cc(O)cc1O`: the Kd was > 4 mM (inactive). Turning to `CC(=O)O[C@@H]1CC[C@@]2(C)C(CC[C@]3(C)C2CC=C2C4CC(C)(C)CC[C@]4(C(=O)O)CC[C@]23C)C1(C)C` (stereo not given in full), the Kd is > 4 mM (inactive). For `Nc1ccc(S(=O)(=O)Nc2nccs2)cc1` the value was > 4 mM (inactive). As to `COc1cc2cc3c4cc(OC)c(OC)cc4cc[n+]3c(C)c2cc1OC`, the Kd is > 4 mM (inactive). As to `Cn1nnc2cc(CN)ccc21`, the Kd was > 4 mM (inactive). Turning to `Cc1ccc2nc(NC(=O)CN3CCOCC3)sc2c1`, the Kd is > 4 mM (inactive). For the compound `Cn1cc(Cl)c(C(=O)Nc2ccc(F)cc2F)n1`, the Kd is > 4 mM (inactive).

In the case of `Cc1cc(C(=O)NCc2cccnc2)cs1`, the Kd is > 4 mM (inactive). Regarding `Cc1nc(CC(=O)O)c(-c2ccccc2)s1`, the Kd is > 4 mM (inactive).

For `Cc1cc(=O)n2[nH]c(N)nc2n1`, the Kd is > 4 mM (inactive). Under `CC(C)CNc1cc(=O)n(C)c(=O)n1C` stands > 4 mM (inactive); under `CN(C)S(=O)(=O)c1cccc(N)c1`, > 4 mM (inactive). Consider `Cc1nc(-c2cccc(-c3noc(C)n3)c2)no1`, for which the Kd is > 4 mM (inactive). As to `CC(C)CC(=O)Nc1c[nH]c(=O)[nH]c1=O`, the Kd was > 4 mM (inactive). Under `NC(=O)CC1NC(=O)c2ccccc21` (stereo not given) stands > 4 mM (inactive).
